Measured values from patent publication US10533989B2, “Metabolomics in pneumonia and sepsis” (University of Pittsburgh—Of the Commonwealth System of …, priority 2012, dated 2020).

Test system: differentiated Thp1 monocytes
Experiment: In-vitro monocyte stimulation, TNFα and IL1β in supernatant by ELISA
Type: cell-based, human
Settings: for IL-1β in supernatant vs PBS control / TNFα in supernatant vs PBS control: differentiated Thp1 monocytes, 16 h, beta-pseudouridine 10 mM, allantoin 0.3 mg/mL
Description: Among significant metabolites (p<0.05, q<0.1) in our agnostic approach, five nucleic acid metabolites (e.g., beta-pseudouridine, 1-methyladenosine, N-2-methylguanosine, N-6-carbamoylthreonyladenosine, and allantoin) were identified for in vitro monocyte stimulation experiments. See, Table 2. These nucleic acid metabolites may function as damage-associated molecular patterns, and stimulate TNFα and IL1β similar to HMGB-1 and LPS. Bleiblo et al. (2012) “The role of immunostimulatory nucleic acids in septic shock” Int J Clin Exp Med 5:1-23
THP-1 cells (American Type Cell Collection, Manassas, Va., USA) were cultured in suspension in RPMI1640 media (Gibco, Grand Island, N.Y., USA) supplemented with 10% fetal bovine serum, 2 mM L-glutamine, 100 U/mL penicillin, 100 […], and 100 µM sodium pyruvate (all from Gibco). To differentiate the monocytes, 0.33×10^6 cells/mL were suspended in media and treated with 5 ng/mL PMA and then plated. After 48 h, adhered cells were washed three times in PBS and then treated for 16 h with compounds of interest at concentrations described. All compounds were dissolved in endotoxin-free water.
Endotoxin was measured at 61.5-153.8 pg per 250 µL treatment of 10 mM dose beta-pseudouridine, compared to 4,000 pg/mL in LPS-positive control. After 16 h media was collected and TNFα and IL1β levels determined by ELISA (R&D Systems, Minneapolis, Minn., USA) according to manufacturer's instructions. Experiments were repeated after treatment with viral inhibitory peptide of TLR4 (VIPER) and polymyxin B (PMB).

O=c1[nH]cc([C@@H]2O[C@H](CO)[C@@H](O)[C@H]2O)c(=O)[nH]1 [pseudouridine]
Cytokine (TNFα) stimulation, concentration dependence (beta-pseudouridine 0.0001-10 mM, 16 h (FIG. 5C)): concentration-dependent | Cytokine (TNFα) levels in the presence of TLR4-receptor inhibitor VIPER (beta-pseudouridine 10 mM with VIPER (TLR4-antagonist), 16 h (FIG. 5D)): significantly abrogated | Cytokine (TNFα) levels in the presence of polymyxin B (beta-pseudouridine 10 mM with polymyxin B (PMB; 10 μM), 16 h (FIG. 5D)): remained significantly elevated | IL-1β in supernatant vs PBS control: increased | TNFα in supernatant vs PBS control: increased | IL-1β in supernatant vs PBS control (listed as beta-pseudouridine): stimulated significant release | TNFα in supernatant vs PBS control (listed as beta-pseudouridine): stimulated significant release

NC(=O)NC1NC(=O)NC1=O (centres unmarked) [allantoin]
IL-1β in supernatant vs PBS control: significantly increased
